Measured values reported in article PMC11181322, “Copper(II) Complexes with Isomeric Morpholine-Substituted 2-Formylpyridine Thiosemicarbazone Hybrids as Potential Anticancer Drugs Inhibiting Both Ribonucleotide Reductase and Tubulin Polymerization: The Morpholine Position Matters” (Journal of Medicinal Chemistry, 2024).

Columns and labels:
MES-SA cells [1] = test: dNTP pools in MES-SA cell extracts; type: cell-based, human; settings: at both concentrations (10 and 25 μM), 24 h
Source text: RNR reduces NDPs to their corresponding deoxy derivatives (dNDPs), which are further converted into dNTPs.[77] Therefore, we investigated the effect of the most toxic proligand H2L^6 and its copper(II) complex 6 on cellular dNTP levels, using Triapine as a control. […] Triapine also elicits a dATP pool decrease while increasing the pools of the three other dNTP species. Decreasing the dATP pool to zero can give rise to the observed cytotoxic effect upon treatment with Triapine. Complex 6 seems to affect dNTP pools by a more complex mechanism, which is nevertheless consistent with R2 inhibition.[79]
Figure 8 Measurement of dNTP pools in MES-SA cell extracts following a 24 h treatment with proligand H2L^6, complex 6, or Triapine at the indicated concentrations. Three independent experiments were performed; error bars represent standard error; stars indicate significant changes compared to the respective control (Ctrl) at p < 0.05.
After a 24 h incubation with or without drugs, MES-SA cells were washed twice with PBS and trypsinized for 5 min. […] The pellet containing dNTPs was redissolved in 50 μL of RNase-free water and stored at −20 °C. dNTP-containing samples were measured by a nucleotide incorporation-based fluorescent method.[97] We used a long synthetic oligonucleotide (197 nt) as a template, which contains a dNTP-detection site, the sole complementary base to that of the dNTP to be quantified directly adjacent to the annealed primer. […] In addition to the limiting amount of dNTP to be quantified, the polymerization reaction mix contained the other three dNTPs in large excess. The double-stranded DNA product is detected by the EvaGreen Dye. The 2X master mix for the DNA synthesis reaction contained the following: 0.275 μM primer (Merck KGaA, Darmstadt, Germany), 0.25 μM template (IDT, Coralville, Iowa, USA), 50 μM dNTP mix (excluding the dNTP to be measured in the given experiment to limit its source to the sample), and 1.25 μM EvaGreen (Biotium). […] Fluorescence amplitude data were extracted from the Bio-Rad CFX Maestro Software and analyzed using Excel and Origin. […]

tubulin = test: Inhibition of [3H]colchicine binding to tubulin; settings: for inhibition of colchicine binding % inhibition ± SD: tubulin 0.5 μM, colchicine 5 μM
MES-SA/Dx5 cells = test: Intracellular ROS generation, DCF-DA assay, MES-SA/Dx5; type: cell-based, human; settings: 25 μM, 4 h treatment
Experimental: (§1) ROS accumulation was evaluated in both the MES-SA and MES-SA/Dx5 cell lines by using 2′,7′-dichlorodihydrofluorescein diacetate (H2DCF-DA) as a probe. This compound enters the cells by passive diffusion, and after oxidation, it is converted to the highly fluorescent 2′,7′-dichlorofluorescein (DCF), enabling the estimation of intracellular ROS levels. ROS generation was measured after a 4 h treatment with 25 μM H2L^6 or 6; tert-butylhydroperoxide (TBHP, 25 μM) was used as a positive control.
(§2) Figure 6 Intracellular ROS generation measured by the DCF-DA assay in MES-SA (filled bars) and MES-SA/Dx5 (lattice bars) cells, after a 4 h treatment with the indicated compounds at 25 μM: H2L^6 (gray), complex 6 (yellow), Triapine (green), and TBHP (brown). Values indicate fold change relative to the fluorescence of the cells treated with fluorescent probe alone (orange bars), following normalization to the initial fluorescence at the beginning of the incubation. Paired t test to the medium control was calculated; […]; **P < 0.01. Values were calculated from at least three independent experiments.
(§3) The human uterine sarcoma cell lines MES-SA and the doxorubicin selected MES-SA-Dx5 were obtained from ATCC (MES-SA: No. CRL-1976, MES-SA/Dx5: No. CRL-1977) and were used for the intracellular ROS generation studies. […]

MES-SA cells [2] = test: Intracellular ROS generation, DCF-DA assay, MES-SA; type: cell-based, human; settings: 25 μM, 4 h treatment
Experimental: as §1, §2, §3

## Cc1cc(NC(=NN=Cc2cccc(CN3CCOCC3)n2)[S][Cu][Cl])cc(C)c1O [complex 6, [Cu(HL^6)Cl]·H2O]
MES-SA cells [1]
  dATP and dTTP levels: marked decrease
tubulin; 5 μM inhibitor
  inhibition of colchicine binding % inhibition ± SD: 5.8 ± 5%
tubulin; 25 μM inhibitor
  inhibition of colchicine binding % inhibition ± SD: 33 ± 2%
tubulin; at the 5 μM concentration
  fold less potent than CA-4 in inhibiting [3H]colchicine binding: 17 fold
MES-SA/Dx5 cells
  Intracellular ROS generation: significant ROS induction
MES-SA cells [2]
  Intracellular ROS generation: significant ROS induction
